Measurements taken from PubChem BioAssay AID2060504 (Molecular Pharmacology Branch, DTP, NCI, 2025).

Test system: 636577-100-R-J1-PDC complex spheroid viability
Test: Anticancer human tumor 636577-100-R-J1-PDC patient-derived endometrial adenocarcinoma cell line growth inhibition [GQUAD]
Settings: for IC50: curve of first compound; for viability, T/C: stronger effect = lower value
From the text: DNA G-quadruplex Stabilizer Agents in Combinations in Complex Spheroids
A high-throughput screen of multi-cell type tumor spheroids was designed to identify active combinations of DNA G-quadruplex stabilizer agents and targeted small molecules. Complex spheroids include a stromal component modeled by human endothelial cells (HUVEC) and fibroblasts modeled by human mesenchymal stem cells (MSCs). The concentration ranges selected for each drug and investigational agent were based upon clinically achievable concentrations if the clinical Cmax of the agent was known.
Compounds. The drugs and investigational agents: pidnarulex (CX-5461; NSC782164), APTO-253 (NSC789042), BRACO-19 (NSC847499), peposertib (NSC802822), ceralasertib (NSC780249), elimusertib (NSC800525), camonsertib (NSC841442), AZD-1390 (NSC803789), olaparib (NSC753686), talazoparib (NSC767125), ART-558 (NSC835418), sotorasib (NSC818433), MRTX-1133 (NSC836407), SN-38 (NSC673596), topotecan (NSC609699), etoposide (NSC141540), doxorubicin (NSC123127), gemcitabine (NSC613327), 5-fluorouracil (NSC19893), paclitaxel (NSC125973), vemurafenib (NSC761431), panobinostat (NSC761190), R-306465 (JNJ-16241199; NSC773264), adavosertib (NSC754352), TP-3654 (NSC805149), carboplatin (NSC241240), KSQ-4279 (NSC840948), and staurosporine (NSC755774) were obtained from the National Cancer Institute (NCI) Developmental Therapeutics Program Chemical Repository (34). The FDA-approved anticancer drug set is available from the NCI Developmental Therapeutics Program. […] The stock solutions were prepared in dimethyl sulfoxide (DMSO, Sigma-Aldrich, St. Louis, MO, cat. D2650) at 800-fold the tested concentration and stored at -70 degrees C prior to their use. All drugs and investigational agents were tested over a range starting from a high concentration at or near the clinical Cmax and decreasing in half-log increments. If the clinical Cmax for an agent had not been determined, the highest concentration tested was 10 microM.
2.3 Cell Culture. All cells were maintained in an incubator at 37 degrees C and 5% CO2 with 95% humidity. The PDC lines were cultured according to standard operating procedures established by the NCI PDMR. All PDCs were thawed and cultured in Matrigel-coated flasks prepared with a working solution of 1X Ham's F-12 nutrient mix, without supplementation (Invitrogen, cat. 11765054), 100 U/mL penicillin-streptomycin (Invitrogen, cat. 15140122), and 2.5% Matrigel (Corning Inc., cat. 354248) for the first three passages. The 857933-349-R-J2-PDC line was cultured in 6C/Colon 1B media, which includes advanced DMEM/F-12 (Thermo Fisher Scientific, cat. 12634028), 10 mM HEPES (Thermo Fisher Scientific, cat. 15630080), 1X GlutaMAX supplement (Thermo Fisher Scientific, cat. 35050061), 0.1 mg/mL primocin (InvivoGen, cat. ant-pm-2), 10% defined fetal bovine serum, heat inactivated (HyClone Laboratories Inc., cat. SH30070.03HI), 50% L-WRN conditioned media (ATCC, cat. CRL-3276), 1.25 mM N-Acetyl-L-cysteine (Sigma-Aldrich, cat. A9165), 10 mM nicotinamide (Sigma-Aldrich, cat. N0636), 1X B-27 supplement (Thermo Fisher Scientific, cat. 17504044), 1X N-2 supplement (Thermo Fisher Scientific, cat. 17502048), 10 microM Y-27632 dihydrochloride (Tocris Bioscience, cat. 1254), and 50 ng/mL human EGF recombinant protein (Thermo Fisher Scientific, cat. PHG0311). The 485176-168-R4-J1-PDC line was cultured in Panc media, which includes all 6C/Colon 1B media components plus 100 ng/mL human FGF-10 (Thermo Fisher Scientific, cat. 100-26), 500 nM SB-431542 (Selleckchem, cat. S1067), and gastrin (Tocris, cat. 3006).
[…]
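Note: viability read after seven days of drug exposure.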
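Throughout, for viability, T/C: luminescence signal used as a proxy for viable cells; 100% = DMSO vehicle control wells.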

`O=c1[nH]cc(F)c(=O)[nH]1` + CN(C)c1ccc(Nc2c3ccc(NC(=O)CCN4CCCC4)cc3nc3cc(NC(=O)CCN4CCCC4)ccc23)cc1 showed an IC50 (second compound 0.0316 µM) of 4.91 µM, an IC50 (second compound 0.1 µM) of 3.69 µM and an IC50 (second compound 0.316 µM) of 5.53 µM. The IC50 (second compound 1 µM) was 3.16 µM, the IC50 (second compound 3.16 µM) was < 0.0316 µM and the IC50 (second compound 10 µM) was < 0.0316 µM. The viability, T/C (second compound 0.0316 µM, first compound 0.0316 µM) was 83.1%, the viability, T/C (second compound 0.0316 µM, first compound 0.1 µM) was 85.7% and the viability, T/C (second compound 0.0316 µM, first compound 0.316 µM) was 87.9%. The viability, T/C (second compound 0.0316 µM, first compound 1 µM) was 79.5%, the viability, T/C (second compound 0.0316 µM, first compound 3.16 µM) was 62.5% and the viability, T/C (second compound 0.0316 µM, first compound 10 µM) was 30.1%. For the same molecule, the viability, T/C (second compound 0.1 µM, first compound 0.0316 µM) was 105%, the viability, T/C (second compound 0.1 µM, first compound 0.1 µM) was 110% and the viability, T/C (second compound 0.1 µM, first compound 0.316 µM) was 72.3%. For the same molecule, the viability, T/C (second compound 0.1 µM, first compound 1 µM) was 63.6%, the viability, T/C (second compound 0.1 µM, first compound 3.16 µM) was 67.5% and the viability, T/C (second compound 0.1 µM, first compound 10 µM) was 27.4%. For the same molecule, the viability, T/C (second compound 0.316 µM, first compound 0.0316 µM) was 88%, the viability, T/C (second compound 0.316 µM, first compound 0.1 µM) was 75.3% and the viability, T/C (second compound 0.316 µM, first compound 0.316 µM) was 75.6%. The viability, T/C (second compound 0.316 µM, first compound 1 µM) was 79.9%, the viability, T/C (second compound 0.316 µM, first compound 3.16 µM) was 69.5% and the viability, T/C (second compound 0.316 µM, first compound 10 µM) was 29.2%. It also gave a viability, T/C (second compound 1 µM, first compound 0.0316 µM) of 67.5%, a viability, T/C (second compound 1 µM, first compound 0.1 µM) of 88.8% and a viability, T/C (second compound 1 µM, first compound 0.316 µM) of 70.5%. For the same molecule, the viability, T/C (second compound 1 µM, first compound 1 µM) was 65.3%, the viability, T/C (second compound 1 µM, first compound 3.16 µM) was 50.8% and the viability, T/C (second compound 1 µM, first compound 10 µM) was 26%. The viability, T/C (second compound 3.16 µM, first compound 0.0316 µM) was 43.7%, the viability, T/C (second compound 3.16 µM, first compound 0.1 µM) was 44.2% and the viability, T/C (second compound 3.16 µM, first compound 0.316 µM) was 49.5%. The viability, T/C (second compound 3.16 µM, first compound 1 µM) was 32.1%, the viability, T/C (second compound 3.16 µM, first compound 3.16 µM) was 27.7% and the viability, T/C (second compound 3.16 µM, first compound 10 µM) was 21%. It also gave a viability, T/C (second compound 10 µM, first compound 0.0316 µM) of 7%, a viability, T/C (second compound 10 µM, first compound 0.1 µM) of 6.98% and a viability, T/C (second compound 10 µM, first compound 0.316 µM) of 6.89%. For the same molecule, the viability, T/C (second compound 10 µM, first compound 1 µM) was 6.25%, the viability, T/C (second compound 10 µM, first compound 3.16 µM) was 6.48% and the viability, T/C (second compound 10 µM, first compound 10 µM) was 3.81%.
